The numbers were not newly measured in article PMC11767697, “Radiocobalt-Labeling of a Polypyridylamine Chelate Conjugated to GE11 for EGFR-Targeted Theranostics” (Molecules, 2025), which cites them from elsewhere.

For this data set the following is noted: Co(II) complex. As for the experimental part: The promising therapeutic properties of the AEE, ^58mCo (T1/2 = 9.1 h), have been theoretically predicted and confirmed by in vitro and in vivo experiments using PSMA and octreotide conjugates of DOTA [[2],[11 ...

SMILES strings stand for the structures.

As for `O=C([O-])CN(CCN(CC(=O)[O-])CC(=O)[O-])CC(=O)[O-].[Co+2]` [[Co^II(EDTA)]^2-], the “stability (binding) constant Log(β)” value (comparable conditions) is 16.1. Take `[Co+2].c1ccc(CN(CCN(Cc2ccccn2)Cc2ccccn2)Cc2ccccn2)nc1` [[Co^II(TPEN)]^2+]: the “stability constant Log(β)” value is 16.6.
